Data set [1] addresses T1, mGluR5 (Rattus norvegicus, UniProt P31424). Nature of the data set: Calcium mobilization (intracellular calcium levels) in primary cultures of rat cortical astrocytes. It counts as cell-based. The method, then: The experiments have been performed on primary cultures of rat cortical astrocytes. These cells express mGlu5Rs ([Zhang et al., 2005]).
Primary cultures of cerebral cortical astrocytes were obtained from newborn rats (1 or 2 days old). Briefly, cerebral cortices were removed and dissociated by mild trypsinization at 37°C, followed by mechanical trituration to obtain single cells. Cells were suspended in the culture medium [Gibco® DMEM, 5% inactivated fetal bovine serum (Thermo-Fisher Scientific, Waltham, MA, United States), 100 IU/ml penicillin, and 100 μg/ml streptomycin (all from Sigma-Aldrich, Milan, Italy)] and then seeded in 75-cm^2 flasks at a density of 3 × 10^6 cells/flask. The cells were incubated at 37°C in a humidified atmosphere, 5% CO2/95% air. The culture medium was replaced after 24 h and again twice weekly until astrocytes were grown to form a monolayer firmly attached to the bottom of the flask (12 or 14 days after dissection). At cell confluence, flasks were vigorously shaken to separate astrocytes (which remained adherent in the bottom of the flasks) from microglia and oligodendrocytes (which floated on the supernatant) ([Tomasini et al., 2015]). Collected astrocytes were counted and then plated in poly-L-lysine at a density of 50,000 cells/well or 96-well plates black, clear bottom plates (Corning®; Sigma-Aldrich, Milan, Italy).
Subsequently 100 μl/well of the same buffer were added for 10 min. […] After placing cell culture and compound plates into the FlexStation II (Molecular Devices, Sunnyvale, CA, United States), the on-line additions were carried out in a volume of 50 μl /well and fluorescence changes were continuously measured for 2 min at 37°C.
(§1) EC50 values were calculated using non-linear regression [curve fit, log(agonist) vs. response, variable slope, four parameters]. Statistical analysis (F-test) has been performed by using GraphPad Prism 6.0 (GraphPad Software Inc., San Diego, CA, United States). Statistical differences between group means for EC50 values were also assessed by ANOVA followed by Tukey’s multiple comparisons test. Data are reported as mean ± SEM of three independent experiments. A p-value < 0.05 was considered statistically significant.
(In general: Calcium assays in cells follow changes in intracellular calcium, usually with a dye or a luminescent sensor.)

The target in data set [2] is T1, mGluR5. As to the kind of experiment: Inositol phosphate (phosphatidylinositol) turnover in rat hippocampus slices. It counts as cell-based. The following applies: for Effect on L-quisqualate concentration-response curve, phosphatidylinositol turnover / Effect on CHPG (10 mM)-induced increase in phosphatidylinositol turnover / Effect on glutamate concentration-response curve, phosphatidylinositol turnover: rat hippocampus slices. The method, then: The experiments have been performed on rat hippocampus slices. This preparation expresses mGlu5Rs ([Zhang et al., 2005]; [Purgert et al., 2014]).
On the day of the experiment, the animals were euthanized, their brain promptly isolated and 400 μm thick slices (15–20 mg each) were obtained from both the left and right hippocampi, by using a McIlwain tissue Chopper fresh tissue. The tissue was then allowed to equilibrate for 20 min at room temperature in Krebs’ solution (composition in mM: NaCl 118; KC1 4.4; CaC1_2 1.2; MgS0_4 1.2; KH2P0_4 1.2; NaHC0_3 25; glucose 10) and gassed with a mixture of 95% O2 plus 5% CO2 ([Ferraro et al., 2011]).
Slices were placed in test tubes containing 0.3 ml of oxygenated Krebs solution with myo-[^3H]inositol 0.3 μM (NEN, Boston, MA, United States). […] The reaction was stopped by washing each slice in ice cold Krebs solution containing LiCl 10 mM and by plunging it in 0.94 ml of chloroform-methanol (1:2 v/v). After 10 min, 310 μl of chloroform and 310 μl of water were added and the tubes were shaken for 20 min. The separation of [^3H]inositol phosphates was performed by ion-exchange chromatography on AG 1-X8 resin, 200–400 mesh (Bio-Rad, Hercules, CA, United States), using different elution solutions. The collected IP3-containing fraction was mixed with Safety-Solve cocktail (RPI, Mount Prospect, IL, United States) and the radioactivity was measured by scintillation counting.
as §1

The target in data set [3] is T1, mGluR5. As to the kind of experiment: pCREB (Ser133) levels in primary cultures of rat cortical neurons. It counts as cell-based. To be noted: rat cortical neurons. The method, then:
The experiments have been performed on primary cultures of rat cortical neurons. These cells express mGlu5Rs ([Koga et al., 2010]).
Primary cultures of cerebral cortical neurons were prepared from 1-day-old rats. Cortices free of meninges were dissociated in 0.025% (w/v) trypsin at 37°C followed by mechanical repeated gentle pipetting through wide- and narrow-bore fire-polished Pasteur pipettes in culture medium [Neurobasal medium (Gibco, Grand Island, NY, United States) supplemented with 0.1 mM glutamine (Sigma-Aldrich, Milan, Italy), 10 μg/ml gentamicin (Sigma-Aldrich, Milan, Italy) and 2% B-27® Supplement (50X), serum free (Gibco, Grand Island, NY, United States)]. Cells were counted and then plated on poly-L-lysine (5 μg/ml)-coated multiwells. Cytosine arabinoside (10 μM; Sigma-Aldrich, Milan, Italy) was added within 24 h of plating to prevent glial cell proliferation. After 8 days of in vitro incubation (days in vitro: DIV), cultures were used for experiments.
pCREB measurement was performed with the pCREB (Ser133) Assay kit (PerkinElmer Italy, Milan). Briefly, cortical neurons were seeded in 96 well tissue culture plates at a density of 4,000 cells/well and incubated at 37°C overnight. […] The lysates were transferred to a 96-well ½AreaPlate^TM for the assay. The Acceptor Mix was added for 1 h at room temperature and the Donor mix was added to wells under subdue light and incubate for 1 h at room temperature. At the end of this period, raw “AlphaScreen Signal counts” were measured by an Alpha Technology®-compatible plate reader, using standard AlphaLISA settings (excitation 680 nm, emission 615 nm).
as §1

Data set [4] has as its system dopamine, serotonin, GABA, ionotropic glutamate receptors, dopamine and serotonin reuptake systems. Also noted: method as in Loche et al., 2012. The following applies: ref Loche et al., 2012; cited from earlier work.
The subject of another data set is hippocampal neurons. Details: method as in Tomasini et al., 2016. The following applies: hippocampal neurons exposed to 0.1 to 10 μM; ref Tomasini et al., 2016; cited from earlier work.
The conditions of data set [5]: ref Haass-Koffler et al., cited from earlier work.
For another data set, the system named is alcohol intake. Details: method as in Loche et al., 2012; Ferraro et al., 2013. The following applies: preclinical studies; ref Loche et al., 2012; Ferraro et al., 2013; cited from earlier work.

T1 sequence (P31424 21-875 limits assumed): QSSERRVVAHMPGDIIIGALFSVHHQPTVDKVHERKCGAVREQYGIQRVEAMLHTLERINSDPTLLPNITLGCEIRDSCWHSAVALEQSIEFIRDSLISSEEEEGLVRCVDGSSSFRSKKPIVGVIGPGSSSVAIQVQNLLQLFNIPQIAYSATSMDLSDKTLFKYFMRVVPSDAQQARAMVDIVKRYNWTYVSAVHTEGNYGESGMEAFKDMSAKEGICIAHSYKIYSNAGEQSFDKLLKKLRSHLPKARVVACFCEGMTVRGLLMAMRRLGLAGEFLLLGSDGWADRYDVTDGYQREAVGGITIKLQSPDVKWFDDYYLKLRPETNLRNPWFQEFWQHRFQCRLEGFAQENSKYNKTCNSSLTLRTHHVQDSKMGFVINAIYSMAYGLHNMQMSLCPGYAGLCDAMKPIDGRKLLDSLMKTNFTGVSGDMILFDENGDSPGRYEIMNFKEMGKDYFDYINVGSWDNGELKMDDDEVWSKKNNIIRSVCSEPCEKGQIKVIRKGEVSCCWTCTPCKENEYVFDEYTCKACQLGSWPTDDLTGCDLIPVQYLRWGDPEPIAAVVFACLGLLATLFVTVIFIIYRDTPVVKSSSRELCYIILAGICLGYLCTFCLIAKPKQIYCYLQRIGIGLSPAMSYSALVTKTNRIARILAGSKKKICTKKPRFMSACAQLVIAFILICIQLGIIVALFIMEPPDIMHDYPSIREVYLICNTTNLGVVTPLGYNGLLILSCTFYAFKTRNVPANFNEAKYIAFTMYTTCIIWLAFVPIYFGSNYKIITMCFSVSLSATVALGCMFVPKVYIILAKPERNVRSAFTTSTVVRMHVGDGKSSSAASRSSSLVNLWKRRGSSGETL

Turning to `COCCCC(=O)NCc1ccc(C(F)(F)F)cc1` [GET73, N-[4-(trifluoromethyl)benzyl]-4-methoxybutyramide], the “Effect on CHPG concentration-response curve, intracellular calcium” value on mGluR5 [1] (GET73 0.1 nM–10 μM) was “significant rightward shift”. The “Effect on L-quisqualate concentration-response curve, intracellular calcium” value at mGluR5 [1] (GET73 0.1 nM–10 μM) was “failed to significantly modify”. In addition, the “Effect on glutamate concentration-response curve, intracellular calcium” value at mGluR5 [1] (GET73 10 nM–10 μM) is “significant rightward shift”; on mGluR5 [1] (GET73 0.1 and 1 nM) it was “ineffective”. In addition, the “Agonistic effect on intracellular calcium levels (calcium transient)” value on mGluR5 [1] (GET73 alone, 0.1 nM–10 μM) was “ineffective”. In addition, the “Effect on L-quisqualate concentration-response curve, phosphatidylinositol turnover” value at mGluR5 [2] (GET73 10 nM–10 μM) is recorded as “significant rightward shift”; at mGluR5 [2] (GET73 0.1 and 1 nM), “ineffective”. Also, the “Effect on CHPG (10 mM)-induced increase in phosphatidylinositol turnover” value on mGluR5 [2] (GET73 100 nM, 1 μM and 10 μM) is listed as “significant reduction”; at mGluR5 [2] (GET73 0.1–10 nM), “ineffective”. For the same compound, the “Effect on glutamate concentration-response curve, phosphatidylinositol turnover” value at mGluR5 [2] (GET73 100 nM–10 μM) is “significant rightward shift”; at mGluR5 [2] (GET73 0.1 and 1 nM), “ineffective”. For the same compound, the “Agonistic effect on phosphatidylinositol turnover” value on mGluR5 [2] (GET73 alone, 0.1 nM–100 μM, rat hippocampal slices) is “failed to modify”. Besides, the “Effect on glutamate concentration-response curve, pCREB” value on mGluR5 [3] (GET73 10 nM–10 μM) is given as “significant rightward shift”; on mGluR5 [3] (GET73 0.1 and 1 nM) it was “ineffective”. Moreover, the “Effect on CHPG concentration-response curve, pCREB” value at mGluR5 [3] (GET73 100 nM–10 μM) is on record as “significant rightward shift”; at mGluR5 [3] (GET73 0.1–10 nM), “ineffective”. Also, the “Effect on L-quisqualate concentration-response curve, pCREB” value at mGluR5 [3] (GET73 0.1–100 nM) is reported as “ineffective”; at mGluR5 [3] (GET73 1 and 10 μM), “significant rightward shift”. For the same compound, the “Agonistic effect on pCREB levels” value at mGluR5 [3] (GET73 alone, 0.1 nM–10 μM) is recorded as “ineffective”. In data set [4], the “Affinity for a series of biological targets” value was “did not show affinity”. Moreover, the Neurotoxicity entry in the data set on hippocampal neurons is recorded as “no signs of neurotoxicity”. In data set [5] (Phase 1 clinical studies, healthy volunteers and alcohol-dependent patients, 2017a,b), the Safety and tolerability result was “safe and well-tolerated”. For the same compound, the CNS side effects entry in data set [5] (two Phase I clinical trials in healthy volunteers and ongoing Phase 1b/2a study in alcohol dependent subjects, 2017a) is on record as “did not induce any CNS side effects”. In addition, the Alcohol intake result with alcohol intake is on record as “reduce alcohol intake”.

These data come from paper PMC5895880 (Frontiers in Pharmacology, 2018).
